# Laboratory results taken from patent US20240246942A1, “KINASE INHIBITORS FOR THE TREATMENT OF NEURODEGENERATIVE DISEASES” (priority 2020, published 2024).
# Key:
# Assay in all cases: biochemical
# [1] = target: T1, panel of 374 wild-type kinases (Homo sapiens, UniProt P52333); conditions: read-out: % Enzyme Activity (relative to DMSO controls), JAK3
# T1 construct: purchased Reaction Biology Corporation
# T1 sequence (P52333 1-1124): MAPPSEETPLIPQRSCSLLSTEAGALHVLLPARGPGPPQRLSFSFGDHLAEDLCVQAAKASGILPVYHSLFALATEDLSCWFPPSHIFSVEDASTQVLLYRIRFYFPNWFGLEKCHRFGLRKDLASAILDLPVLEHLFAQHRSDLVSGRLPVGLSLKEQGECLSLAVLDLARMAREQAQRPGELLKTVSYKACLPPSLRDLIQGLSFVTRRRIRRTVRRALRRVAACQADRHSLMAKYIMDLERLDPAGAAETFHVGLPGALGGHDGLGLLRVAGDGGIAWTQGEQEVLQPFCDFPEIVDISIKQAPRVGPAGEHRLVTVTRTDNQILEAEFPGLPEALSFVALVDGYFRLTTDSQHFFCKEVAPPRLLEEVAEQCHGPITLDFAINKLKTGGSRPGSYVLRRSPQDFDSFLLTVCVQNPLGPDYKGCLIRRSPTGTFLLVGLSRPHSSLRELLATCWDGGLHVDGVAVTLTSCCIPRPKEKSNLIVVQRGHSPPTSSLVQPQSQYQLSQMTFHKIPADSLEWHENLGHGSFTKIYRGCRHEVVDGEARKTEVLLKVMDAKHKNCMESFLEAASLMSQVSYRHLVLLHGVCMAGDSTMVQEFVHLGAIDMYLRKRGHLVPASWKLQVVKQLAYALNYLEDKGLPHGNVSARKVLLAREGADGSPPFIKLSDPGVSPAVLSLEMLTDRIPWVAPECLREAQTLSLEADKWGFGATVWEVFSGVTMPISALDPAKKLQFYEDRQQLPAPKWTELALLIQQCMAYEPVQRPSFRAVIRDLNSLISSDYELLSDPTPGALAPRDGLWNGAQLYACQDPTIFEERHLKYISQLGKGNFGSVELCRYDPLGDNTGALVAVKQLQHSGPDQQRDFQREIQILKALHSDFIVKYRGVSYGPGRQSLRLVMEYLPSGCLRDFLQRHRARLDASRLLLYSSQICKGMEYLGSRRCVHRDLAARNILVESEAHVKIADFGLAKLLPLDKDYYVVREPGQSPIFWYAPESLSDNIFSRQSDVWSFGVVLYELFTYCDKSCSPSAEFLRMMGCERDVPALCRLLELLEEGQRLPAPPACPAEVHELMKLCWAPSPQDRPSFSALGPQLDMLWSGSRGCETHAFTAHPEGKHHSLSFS
# [2] = target: T2, panel of 374 wild-type kinases (Homo sapiens, UniProt Q14164); conditions: read-out: % Enzyme Activity (relative to DMSO controls), IKKe/IKBKE
# T2 construct: purchased Reaction Biology Corporation
# T2 sequence (Q14164 1-716): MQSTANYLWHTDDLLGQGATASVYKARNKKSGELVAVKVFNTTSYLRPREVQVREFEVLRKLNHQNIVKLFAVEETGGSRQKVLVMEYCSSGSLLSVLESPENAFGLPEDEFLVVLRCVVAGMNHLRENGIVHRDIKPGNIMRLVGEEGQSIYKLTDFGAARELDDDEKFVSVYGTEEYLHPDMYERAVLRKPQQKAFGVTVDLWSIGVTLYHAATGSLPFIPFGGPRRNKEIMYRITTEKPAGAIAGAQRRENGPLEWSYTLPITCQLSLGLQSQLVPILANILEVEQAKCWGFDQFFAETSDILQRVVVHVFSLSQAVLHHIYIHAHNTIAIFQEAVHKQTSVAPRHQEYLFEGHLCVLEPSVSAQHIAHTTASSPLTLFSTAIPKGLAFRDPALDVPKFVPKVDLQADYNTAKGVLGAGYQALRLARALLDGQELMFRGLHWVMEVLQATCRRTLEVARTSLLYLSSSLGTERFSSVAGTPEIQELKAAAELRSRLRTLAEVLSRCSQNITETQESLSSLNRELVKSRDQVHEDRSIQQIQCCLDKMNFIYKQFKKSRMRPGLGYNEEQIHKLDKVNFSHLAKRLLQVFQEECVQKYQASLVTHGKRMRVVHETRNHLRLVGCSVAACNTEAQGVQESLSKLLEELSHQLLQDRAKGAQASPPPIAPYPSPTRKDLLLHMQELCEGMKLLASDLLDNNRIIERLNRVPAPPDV
# [3] = target: T3, panel of 374 wild-type kinases (Homo sapiens, UniProt O75460); conditions: read-out: % Enzyme Activity (relative to DMSO controls), ERN1/IRE1
# T3 construct: purchased Reaction Biology Corporation
# [4] = target: T4, panel of 374 wild-type kinases (Homo sapiens, UniProt Q08881); conditions: read-out: % Enzyme Activity (relative to DMSO controls), ITK
# T4 construct: purchased Reaction Biology Corporation
# T4 sequence (Q08881 1-620): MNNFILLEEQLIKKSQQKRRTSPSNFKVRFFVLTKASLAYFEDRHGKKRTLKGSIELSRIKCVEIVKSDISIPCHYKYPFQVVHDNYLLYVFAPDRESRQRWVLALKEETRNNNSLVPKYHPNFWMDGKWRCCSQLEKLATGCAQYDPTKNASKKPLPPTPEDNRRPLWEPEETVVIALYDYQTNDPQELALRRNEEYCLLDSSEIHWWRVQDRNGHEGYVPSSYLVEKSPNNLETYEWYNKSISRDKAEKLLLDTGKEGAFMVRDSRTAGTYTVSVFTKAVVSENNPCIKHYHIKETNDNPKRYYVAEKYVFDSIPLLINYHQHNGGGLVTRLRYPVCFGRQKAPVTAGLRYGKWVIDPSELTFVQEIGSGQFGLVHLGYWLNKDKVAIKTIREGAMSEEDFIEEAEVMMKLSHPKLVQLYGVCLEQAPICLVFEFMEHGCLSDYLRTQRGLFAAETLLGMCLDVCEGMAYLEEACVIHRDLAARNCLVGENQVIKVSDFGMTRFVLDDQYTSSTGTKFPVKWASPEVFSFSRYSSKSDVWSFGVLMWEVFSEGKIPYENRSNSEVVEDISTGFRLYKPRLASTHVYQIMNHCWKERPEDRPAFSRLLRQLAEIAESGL
# [5] = target: T5, panel of 374 wild-type kinases (Homo sapiens, UniProt P10721); conditions: read-out: % Enzyme Activity (relative to DMSO controls), c-Kit
# T5 construct: purchased Reaction Biology Corporation
# T5 sequence (P10721 26-976): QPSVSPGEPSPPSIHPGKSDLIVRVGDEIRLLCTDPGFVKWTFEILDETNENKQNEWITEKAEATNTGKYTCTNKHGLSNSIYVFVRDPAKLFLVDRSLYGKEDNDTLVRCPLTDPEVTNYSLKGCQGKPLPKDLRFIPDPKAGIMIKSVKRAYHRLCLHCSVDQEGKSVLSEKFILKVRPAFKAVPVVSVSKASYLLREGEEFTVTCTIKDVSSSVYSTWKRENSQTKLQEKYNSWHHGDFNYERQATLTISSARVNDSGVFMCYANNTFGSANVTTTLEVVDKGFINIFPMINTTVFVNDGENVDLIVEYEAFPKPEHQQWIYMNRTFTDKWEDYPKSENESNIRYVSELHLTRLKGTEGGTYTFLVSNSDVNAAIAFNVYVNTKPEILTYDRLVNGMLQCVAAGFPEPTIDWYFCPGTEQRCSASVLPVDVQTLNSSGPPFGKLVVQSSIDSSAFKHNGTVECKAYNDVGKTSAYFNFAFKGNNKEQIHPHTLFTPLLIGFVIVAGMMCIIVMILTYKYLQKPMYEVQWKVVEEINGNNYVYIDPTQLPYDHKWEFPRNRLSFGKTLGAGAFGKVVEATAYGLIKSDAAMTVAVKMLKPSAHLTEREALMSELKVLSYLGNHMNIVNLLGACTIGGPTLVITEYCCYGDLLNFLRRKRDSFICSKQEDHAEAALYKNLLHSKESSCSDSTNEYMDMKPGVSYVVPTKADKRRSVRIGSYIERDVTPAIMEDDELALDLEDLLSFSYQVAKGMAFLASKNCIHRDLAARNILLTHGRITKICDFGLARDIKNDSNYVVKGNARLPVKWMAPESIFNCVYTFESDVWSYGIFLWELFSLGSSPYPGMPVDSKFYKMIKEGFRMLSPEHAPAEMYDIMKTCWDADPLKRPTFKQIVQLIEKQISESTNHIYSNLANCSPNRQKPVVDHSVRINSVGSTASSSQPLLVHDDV
# T3 sequence (O75460 19-977): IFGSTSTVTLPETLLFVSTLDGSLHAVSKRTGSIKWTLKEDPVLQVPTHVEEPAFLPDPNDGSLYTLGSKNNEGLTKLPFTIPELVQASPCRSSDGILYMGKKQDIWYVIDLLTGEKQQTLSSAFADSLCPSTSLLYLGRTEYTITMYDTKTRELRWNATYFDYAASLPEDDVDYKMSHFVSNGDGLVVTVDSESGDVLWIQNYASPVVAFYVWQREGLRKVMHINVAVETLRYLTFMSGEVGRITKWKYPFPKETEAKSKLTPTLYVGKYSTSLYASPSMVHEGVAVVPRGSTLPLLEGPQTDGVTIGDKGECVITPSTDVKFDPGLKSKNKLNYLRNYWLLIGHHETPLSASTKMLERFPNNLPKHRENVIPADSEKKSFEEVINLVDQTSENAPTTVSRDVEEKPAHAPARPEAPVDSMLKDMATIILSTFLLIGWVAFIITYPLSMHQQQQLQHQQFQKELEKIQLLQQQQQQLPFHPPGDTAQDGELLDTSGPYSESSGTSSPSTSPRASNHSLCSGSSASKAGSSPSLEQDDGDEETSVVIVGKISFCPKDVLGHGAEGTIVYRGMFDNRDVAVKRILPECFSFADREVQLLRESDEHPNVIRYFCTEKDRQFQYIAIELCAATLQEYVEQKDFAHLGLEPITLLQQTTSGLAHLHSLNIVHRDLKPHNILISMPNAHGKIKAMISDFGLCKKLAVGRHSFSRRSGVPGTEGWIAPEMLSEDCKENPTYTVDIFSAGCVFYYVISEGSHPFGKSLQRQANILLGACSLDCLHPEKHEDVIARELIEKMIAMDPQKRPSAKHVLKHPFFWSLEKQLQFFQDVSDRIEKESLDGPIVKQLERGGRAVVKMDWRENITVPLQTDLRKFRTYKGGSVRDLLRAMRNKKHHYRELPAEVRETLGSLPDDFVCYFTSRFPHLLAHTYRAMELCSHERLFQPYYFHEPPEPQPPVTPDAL
SMILES,remaining activity at 5 µM [1] [%],remaining activity at 5 µM [2] [%],remaining activity at 5 µM [3] [%],remaining activity at 5 µM [4] [%],remaining activity at 5 µM [5] [%],remaining activity at 10 µM ([1]; 10 uM) [%],remaining activity at 10 µM ([2]; 10 uM) [%],remaining activity at 10 µM ([3]; 10 uM) [%],remaining activity at 10 µM ([4]; 10 uM) [%],remaining activity at 10 µM ([5]; 10 uM) [%]
"O=C(Nc1cnn(-c2csc(C(=O)NC3COC3)c2)c1)Nc1ccccc1Cl [Compound 17, 4-(4-(3-(2-chlorophenyl)ureido)-1H-pyrazol-1-yl)-N-(oxetan-3-yl)thiophene-2-carboxamide]",102,110,94.3,107,89.2,,,,,
"O=C(Nc1cnn(-c2csc(C(=O)NC3COC3)c2)c1)Nc1c(F)cccc1Cl [Compound 25, 4-(4-(3-(2-chloro-6-fluorophenyl)ureido)-1H-pyrazol-1-yl)-N-(oxetan-3-yl)thiophene-2-carboxamide]",98.7,96.8,95.8,92.8,94,,,,,
"Cc1sc(C(=O)NC2COC2)cc1-n1cc(NC(=O)Nc2c(F)cccc2Cl)cn1 [Compound 27, 4-(4-(3-(2-chloro-6-fluorophenyl)ureido)-1H-pyrazol-1-yl)-5-methyl-N-(oxetan-3-yl)thiophene-2-carboxamide]",,,,,,96.7,116,94.1,94.4,64.4
